Experimental data published in US8946230B2, “Aryl- and heteroaryl- nitrogen-heterocyclic compounds as PDE10 inhibitors” (Amgen Inc., priority 2010, dated 2015).
Like-named read-outs stand apart in the source and are kept apart here.

Target: T1, PDE10 (UniProt Q8CA95)
T1 sequence (Q8CA95 1-790): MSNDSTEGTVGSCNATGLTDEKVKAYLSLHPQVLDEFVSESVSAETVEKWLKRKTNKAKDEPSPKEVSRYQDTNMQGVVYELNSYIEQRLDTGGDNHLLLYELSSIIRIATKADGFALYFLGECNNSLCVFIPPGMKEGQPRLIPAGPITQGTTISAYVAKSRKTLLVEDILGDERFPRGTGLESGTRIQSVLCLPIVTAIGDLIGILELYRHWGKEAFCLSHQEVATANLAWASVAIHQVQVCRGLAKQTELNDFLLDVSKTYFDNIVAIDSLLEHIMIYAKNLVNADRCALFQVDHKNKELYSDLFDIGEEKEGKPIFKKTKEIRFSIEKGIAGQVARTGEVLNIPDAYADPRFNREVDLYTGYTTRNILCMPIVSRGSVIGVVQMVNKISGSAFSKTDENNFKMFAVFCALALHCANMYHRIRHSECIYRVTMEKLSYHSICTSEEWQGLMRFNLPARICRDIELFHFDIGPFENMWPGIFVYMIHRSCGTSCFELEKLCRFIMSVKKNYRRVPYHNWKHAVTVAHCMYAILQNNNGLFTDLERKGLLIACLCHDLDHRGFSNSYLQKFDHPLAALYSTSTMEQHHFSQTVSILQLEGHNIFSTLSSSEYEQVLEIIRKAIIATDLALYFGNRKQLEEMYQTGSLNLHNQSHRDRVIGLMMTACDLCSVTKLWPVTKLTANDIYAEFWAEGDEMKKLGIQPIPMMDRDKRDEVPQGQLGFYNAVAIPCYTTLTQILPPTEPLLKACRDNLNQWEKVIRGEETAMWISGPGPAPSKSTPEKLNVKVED
Assay: PDE10 enzyme inhibition, IMAP TR-FRET assay (Example A: MPDE10A7 Enzyme Activity and Inhibition)
Type: biochemical
Experimental: MPDE10A7 Enzyme Activity and Inhibition Enzyme Activity. An IMAP TR-FRET assay was used to analyze the enzyme activity (Molecular Devices Corp., Sunnyvale Calif.). 5 μL of serial diluted PDE10A (BPS Bioscience, San Diego, Calif.) or tissue homogenate was incubated with equal volumes of diluted fluorescein labeled cAMP or cGMP for 60 min in 384-well polystyrene assay plates (Corning, Corning, N.Y.) at room temperature. After incubation, the reaction was stopped by adding 60 μL of diluted binding reagents and was incubated for 3 hours to overnight at room temperature. The plates were read on an Envision (Perkin Elmer, Waltham, Mass.) for time resolved fluorescence resonance energy transfer. The data were analyzed with GraphPad Prism (La Jolla, Calif.). Enzyme Inhibition. To check the inhibition profile, 5 μL of serial diluted compounds were incubated with 5 μL of diluted PDE10 enzyme (BPS Bioscience, San Diego, Calif.) or tissue homogenate in a 384-well polystyrene assay plate (Corning, Corning, N.Y.) for 30 min at room temperature. After incubation, 10 μL of diluted fluorescein labeled cAMP or cGMP substrate were added and incubated for 60 min at room temperature. The reaction was stopped by adding 60 μL of diluted binding reagents and plates were read on an Envision (Perkin Elmer, Waltham, Mass.) for time resolved fluorescence resonance energy transfer. The data were analyzed with GraphPad Prism (La Jolla, Calif.).

[1] = Table 1A, Examples 11-56, read-out: PDE10 IC50

Structure (SMILES)	IC50 [1] [nM]	IC50 (read-out: IC50) [nM]
Cc1ccc2[nH]c(C3CN(c4nccnc4N4CCOCC4)C3)nc2c1 [Example 46, 4-(3-(3-(5-methyl-1H-benzo[d]imidazol-2-yl)azetidin-1-yl)pyrazin-2-yl)morpholine]	600	
N#Cc1ccc2[nH]c(C3CCN(c4nccnc4N4CCOCC4)CC3)nc2c1 [Example 1B, 2-[1-(3-MORPHOLIN-4-YL-PYRAZIN-2-YL)-PIPERIDIN-4-YL]-1H-BENZOIMIDAZOLE-5-CARBONITRILE]		2000
Clc1ccc2[nH]c(C3CN(c4nc(Cl)ncc4Cl)C3)nc2c1 [Example 55, 5-chloro-2-(1-(2,5-dichloropyrimidin-4-yl)azetidin-3-yl)-1H-benzo[d]imidazole]	520	
